What was measured:
HeLa cells = experiment: DNA homologous recombination repair assay (pHPRT-DRGFP / I-SceI); format: cell-based, human; settings: for GFP cell (%): chromosomal breaks generated by I-SceI endonuclease expression, 48 h
Text: ATR function is also linked to DNA repair via its coupled targets (Sorensen C S, et al. Nat Cell Biol 2005). To examine the effect of benzopyran-4-one derivatives treatment on DNA repair, we performed a homologous recombination repair (HRR) assay in HeLa cells. DNA constructs of the recombination substrate pHPRT-DRGFP, in which the I-SceI site lies within 1 copy of 2 mutated tandem repeated GFP genes, and the I-SceI endonuclease expression vector pCBASceI, were originally constructed by Dr. M. Jasin (25). In brief, we generated a stable pHPRT-DRGFP construct in HeLa cells, and evaluated the chromosomal breaks generated by I-SceI endonuclease expression. Six hours after pCBASceI was delivered into the cells, complete medium with or without Protoapigenone (I-1) or compound II-1 was replaced onto the cells. Forty-eight hours after delivery, the efficiency of chromosomal HRR was obtained as the percentage of GFP-positive cells, which was assessed by flow cytometry.

synchronized cells = experiment: Double-thymidine cell cycle synchronization assay (flow cytometry); format: cell-based; settings: for Percentage of G2/M cells compared with control group, in words: 9 hours of treatment after release
Text: ATR are involved in DNA replication. […] In the results of double-thymidine cell cycle synchronization assay, according to the Table 4 which sorted out from FIGS. 21-23, the unsynchronized cells (FIG. 21(a)) become synchronization by using this method, and 97% of cells were stopped at G1/S boundary after two cycles of thymidine blocks (FIG. 21(b)). Those synchronized cells released from thymidine blockade and allowed progress into S phase in presence or absence of protoapigenone (I-1) and compound II-1.
To evaluate the effect of DNA damage checkpoint activation on cell cycle distribution, the cells were harvested at indicated time points and fixed with methanol for at least 2 h. The DNA was then stained with a solution containing propidium iodide (PI) and RNase A (Sigma-Aldrich). Fluorescently labeled cells were subsequently analyzed by the flow cytometer (LSR II; BD Biosciences) with a suitable selection of excitation and emission wavelengths. The percentages of different fluorescent cell populations were analyzed using WinMDI Ver. 2.9 (The Scripps Research Institute).

[1] = system: ATM-mediated Chk2 phosphorylation; experiment: Immunoblot of DNA damage-induced Chk2 phosphorylation / ATM autophosphorylation; format: cell-based, human; settings: for UV-induced or H2O2-induced Chk2 phosphorylation: HEK293T cells with siRNAs against ATM and DNA-PKcs
Text: We hypothesized that genes with functions associated with DNA damage checkpoints and/or DNA repair might be targeted by benzopyran-4-one derivatives. To test this hypothesis, we assessed the effects of benzopyran-4-one derivatives on DDR induced by H2O2. […] In response to DNA double-strand breaks (DSBs), FANCD2 is known to be monoubiquitinated on K561 (FANCD2-Ub) in an ATR-dependent manner to stimulate repair (Andreassen P R, et al. Genes Dev 2004).
To elucidate the specificity of the benzopyran-4-one derivatives inhibition on ATR-mediated signaling, we compared the change between cells treated with benzopyran-4-one derivatives or the ATM-specific inhibitor KU55933 before the induction of DDR.
MDA-MB-231 (breast adenocarcinoma; ATCC HTB-26, BCRC 60425) and A549 (lung adenocarcinoma; ATCC CCL-185, BCRC 60074) human cell lines were purchased from Bioresource Collection and Research Center (BCRC, Hsinchu, Taiwan), and were authenticated by American Type Culture Collection (ATCC, Manassas, Va.). U2OS (osteosarcoma), HeLa (cervical adenocarcinoma), and HEK 293T (embryonic kidney cells) human cell lines were provided by Dr. Sheau-Yann Shieh (Institute of Molecular Biology, Academia Sinica, Taipei, Taiwan). Cells were maintained in Dulbecco's modified Eagle's medium (DMEM, Sigma-Aldrich) supplemented with 10% fetal bovine serum (FBS) (Gibco). […] For UV irradiation treatment, the cells were irradiated for 10 J/m^2 by a cross-linker (UVP) 1 h prior to analysis.
Cell lysate preparations, gel electrophoresis, and immunoblotting were performed as previously described (23). The binding of primary antibodies were detected by horseradish peroxidase-coupled secondary antibodies (Jackson ImmunoResearch) followed by enhanced chemiluminescence (ECL) (Millipore). The images of non-saturated bands were captured using a luminescent image analyzer (LAS-4000 mini; Fujifilm). The antibodies used in this study are listed in supplementary materials.

[2] = system: MDA-MB-231 tumor xenograft; experiment: Human xenograft tumors in nude mice; format: in vivo
Text: Inhibition of the checkpoint and repair mechanisms leads to chemosensitization in cancers. […] We further treated individual cells with cisplatin in combination with several varying doses of benzopyran-4-one derivatives, and counted survival colonies to determine their ability to survive after cisplatin-induced damage. […] To investigate the chemosensitization effect of low-dose benzopyran-4-one derivatives in vivo, we established a tumor xenograft in nude mice using human MDA-MB-231 tumor cells, which are considered to be more resistant to cisplatin and are also sensitive to treatment with benzopyran-4-one derivatives, at least as compared to A549 cells (FIGS. 4, 17(a) and 17(b)). […] The pharmacokinetic data of Protoapigenone (I-1) and compound II-1 needs to be compared in future studies to determine the differences in the chemical effects of these 2 compounds in vitro and in vivo.
Human breast cancer MAD-MB-231 cells were harvested from the culture, resuspended in medium without serum at 1×10^8 cells/mL, and 0.1 mL of this suspension was subcutaneously injected into the right flank of female nude mice (BALB/cAnN-Foxn1nu/Crl Narl; purchased from the National Science Council Animal Center, Taiwan). Tumor-injected mice that successfully developed tumors that grew to approximately 50-100 mm^3 in volume were randomly sorted into groups and used for the experiments. […]

DNA replication = experiment: EdU incorporation assay of DNA replication; format: cell-based
Method: DNA replication was measured using a Click-it EdU assay kit, which is based on incorporation of the thymidine analogue 5-ethynyl-2'-deoxyuridine (EdU) into DNA during replication (Invitrogen). Then, 10 μM EdU was added to the cell culture medium 30 min before the cells were harvested and fixed in 4% paraformaldehyde. After cycloaddition, EdU was detected with Alexa Fluor 647 using click reaction catalyzed by Cu (II), and the DNA content was stained by CellCycle 405-blue. […] An FITC Annexin V apoptosis detection kit was used to characterize the phenotype of cell death based on PI and Annexin V double staining (BD Pharmingen, San Diego, Calif.). Fluorescence-labeled cells were subsequently analyzed by the BD LSR II flow cytometer with a suitable selection of excitation and emission wavelengths. The percentages of different fluorescent cells were analyzed using WinMDI Ver. 2.9.

tumor xenografts = settings: previous studies; cited from earlier work
[3] = 6 hrs after release from synchronization
[4] = 9 hrs after release from synchronization
[5] = A594 cells, 0.1 mM H2O2 for 2 h

For `O=C1C=CC(O)(c2cc(=O)c3c(ccc4ccccc43)o2)C=C1` [Compound II-1, 3-(1-hydroxy-4-oxo-cyclohexa-2,5-dienyl)-1H-benzo[f]chromen-1-one], the “Dose lower than that of Protoapigenone (I-1) for similar HRR effects” value (HeLa cells) was 10 fold, the “GFP cell (%)” value (HeLa cells; 0.2 μM) was 0.703 ± 0.0304% and the “GFP cell (%)” value (HeLa cells; 0.4 μM) was 0.17%. For the same compound, the “Cell cycle G1” value (synchronized cells; [3]) was 21.72%, the “Cell cycle G2M” value (synchronized cells; [3]) was 4.59% and the “Cell cycle S” value (synchronized cells; [3]) was 72.01%. For the same compound, the “Percentage of G2/M cells compared with control group, in words” value (synchronized cells) was “significantly reduce”, the “Cell cycle G1” value (synchronized cells; [4]) was 15.50% and the “Cell cycle G2M” value (synchronized cells; [4]) was 20.45%. For the same compound, the “Cell cycle S” value (synchronized cells; [4]) was 63.06%, the “UV-induced or H2O2-induced Chk2 phosphorylation” value [1] was “increased” and the Tumor inhibitory effect ([2]; 0.2 mg/kg with 2 mg/kg cisplatin, intraperitoneally every 4 d) was “greater than that of cisplatin treatment alone”. For the same compound, the “Percentage of EdU incorporation compared with control group” value (DNA replication; 0.4 μM) was “efficiently reduce”, the “Size of tumor xenografts” value (tumor xenografts) was “reduce the size of tumor xenografts” and the “Toxic effects on the recipient” value (tumor xenografts) was “without exerting toxic effects on the recipient”.

For `O=C1C=CC(O)(c2cc(=O)c3c(O)cc(O)cc3o2)C=C1` [Compound I-1, Protoapigenone], the “GFP cell (%)” value (HeLa cells; 2.0 μM) was 0.807 ± 0.0403%, the “GFP cell (%)” value (HeLa cells; 4.0 μM) was 0.213 ± 0.0105% and the “Repair of chromosomal breaks by HRR, in words” value (HeLa cells; low concentrations) was “dose-dependently inhibited”. For the same compound, the “Cell cycle G1” value (synchronized cells; [3]) was 25.45%, the “Cell cycle G2M” value (synchronized cells; [3]) was 0.41% and the “Cell cycle S” value (synchronized cells; [3]) was 69.13%. The “Percentage of G2/M cells compared with control group, in words” value (synchronized cells) was “significantly reduce”, the “Cell cycle G1” value (synchronized cells; [4]) was 21.41% and the “Cell cycle G2M” value (synchronized cells; [4]) was 16.46%. The “Cell cycle S” value (synchronized cells; [4]) was 60.89%, the ATM autophosphorylation [1, 5] was “not affected” and the Chk2 phosphorylation [1, 5] was “promote”. The “UV-induced or H2O2-induced Chk2 phosphorylation” value [1] was “not altered”, the “Cisplatin sensitivity of MDA-MB-231 tumors” value ([2]; 2 mg/kg (data not shown)) was “did not affect the cisplatin sensitivity” and the “Percentage of EdU incorporation compared with control group” value (DNA replication; 4 μM) was “efficiently reduce”. The “Size of tumor xenografts” value (tumor xenografts) was “reduce the size of tumor xenografts” and the “Toxic effects on the recipient” value (tumor xenografts) was “without exerting toxic effects on the recipient”.

Reference: patent publication US11413267B2, “Methods and compositions for inhibition of ATR and FANCD2 activation” (priority 2012, dated 2022)
